US11919858B2, “Aminonapthoquinone compounds and pharmaceutical composition for blocking ubiquitination-proteasome system in diseases” (Calgent Biotechnology Co., Ltd., priority 2015, dated 2024)

Assays:
Format in all cases: cell-based
[1] = system: IL-6 production in human rheumatoid arthritis fibroblast-like synoviocyte cells; test: IL-6 production in RAFLS cells (ELISA); settings: RA-FLS, 24 h
Description: Cell culture. Human rheumatoid arthritis fibroblast-like synoviocytes (RAFLS) from Cell Application Inc. (San Diego, CA, USA) were grown in synoviocyte growth medium from the same supplier.
IL-6 Determination. RA-FLS (2.5×10^4) was treated with various concentrations of MPT0L056 for 24 h, then the medium was collected and assayed for IL-6 using commercial ELISA kit.

PC-3 = test: Growth inhibition assay; settings: Homo sapiens; PC-3 (Prostate cancer), 48 hours
Description: (§1) Cells were seeded in 96-well plastic plates and exposed to MPT0L056 for 48 hours. Cell viability was assessed using the 3-(4,5-dimethylthiazol-2-yl)-2,5-diphenyltetrazolium bromide assay. Growth inhibition was expressed as the percentage of surviving cells in drug-treated versus DMSO-treated control cells.

MOLT4 = test: Growth inhibition assay; settings: Homo sapiens, MOLT-4; MOLT4 (Leukemia), 48 hours
Description: as §1

T98 = test: Growth inhibition assay; settings: Homo sapiens; T98 (Brain cancer), 48 hours
Description: as §1

HepG2 = test: Growth inhibition assay; settings: Homo sapiens; HepG2 (Liver cancer), 48 hours
Description: as §1

REH = test: Growth inhibition assay; settings: Homo sapiens; REH (B cell leukemia), 48 hours
Description: as §1

HUVECs = test: Growth inhibition assay; settings: Homo sapiens, HUVEC; HUVECs (Normal cells), 48 hours
Description: as §1

U-87 MG = test: Growth inhibition assay; settings: Homo sapiens; U-87 MG (Brain cancer), 48 hours
Description: as §1

NCI-H460 = test: Growth inhibition assay; settings: Homo sapiens; NCI-H460 (Lung cancer), 48 hours
Description: as §1

OVCAR4 = test: Growth inhibition assay; settings: Homo sapiens, OVCAR-4; OVCAR4 (Ovarian cancer), 48 hours
Description: as §1

PC-6 = test: Growth inhibition assay; settings: Homo sapiens; PC-6 (Lung cancer), 48 hours
Description: as §1

KATO III = test: Growth inhibition assay; settings: Homo sapiens; KATO III (Stomach cancer), 48 hours
Description: as §1

MCF-7 = test: Growth inhibition assay; settings: Homo sapiens, MCF7; MCF-7 (Breast cancer), 48 hours
Description: as §1

A-498 = test: Growth inhibition assay; settings: Homo sapiens, A498; A-498 (Kidney cancer), 48 hours
Description: as §1

A549 = test: Growth inhibition assay; settings: Homo sapiens; A549 (Lung cancer), 48 hours
Description: as §1

SK-MEL-5 = test: Growth inhibition assay; settings: Homo sapiens; SK-MEL-5 (Melanoma), 48 hours
Description: as §1

OVCAR3 = test: Growth inhibition assay; settings: Homo sapiens, OVCAR-3; OVCAR3 (Ovarian cancer), 48 hours
Description: as §1

H33HJ-JA1 = test: Growth inhibition assay; settings: H33HJ-JA1 (T cell lymphoma), 48 hours
Description: as §1

NHDF = test: Growth inhibition assay; settings: Homo sapiens; NHDF (Normal cells), 48 hours
Description: as §1

HT-29 = test: Growth inhibition assay; settings: Homo sapiens; HT-29 (Colorectal cancer), 48 hours
Description: as §1

AsPC1 = test: Growth inhibition assay; settings: Homo sapiens; AsPC1 (Pancreas cancer), 48 hours
Description: as §1

ZR-75 = test: Growth inhibition assay; settings: ZR75; ZR-75 (Breast cancer), 48 hours
Description: as §1

Hepatocytes = test: Growth inhibition assay; settings: Hepatocyte; Hepatocytes (Normal cells), 48 hours
Description: as §1

ACHN = test: Growth inhibition assay; settings: Homo sapiens; ACHN (Kidney cancer), 48 hours
Description: as §1

K562 = test: Growth inhibition assay; settings: Homo sapiens; K562 (Leukemia), 48 hours
Description: as §1

A431 = test: Growth inhibition assay; settings: Homo sapiens, A-431; A431 (Skin cancer), 48 hours
Description: as §1

Ramos = test: Growth inhibition assay; settings: Homo sapiens; Ramos (B cell leukemia), 48 hours
Description: as §1

BxPC3 = test: Growth inhibition assay; settings: Homo sapiens, BXPC-3; BxPC3 (Pancreas cancer), 48 hours
Description: as §1

Question: How did the IC50 [1] turn out when O=C(Nc1ccncc1)c1ccc(CNC2=C(Cl)C(=O)c3ccccc3C2=O)cc1 [MPT0L056] was run?
Answer: 7260 nM

Question: And the GI50 (PC-3)?
Answer: 2500 nM

Question: And the GI50 (MOLT4)?
Answer: 4000 nM

Question: And the GI50 (T98)?
Answer: 5700 nM

Question: And the GI50 (HepG2)?
Answer: 3600 nM

Question: What about the GI50 (REH) of the same compound?
Answer: 2800 nM

Question: What about the GI50 (HUVECs) of the same compound?
Answer: 16000 nM

Question: What about the GI50 (U-87 MG) of the same compound?
Answer: 2500 nM

Question: And the GI50 (NCI-H460)?
Answer: 2900 nM

Question: And the GI50 (OVCAR4)?
Answer: 1400 nM

Question: And the GI50 (PC-6)?
Answer: 1800 nM

Question: And the GI50 (KATO III)?
Answer: 2400 nM

Question: And the GI50 (MCF-7)?
Answer: 900 nM

Question: And the GI50 (A-498)?
Answer: 3500 nM

Question: And the GI50 (A549)?
Answer: > 5000 nM

Question: And the GI50 (SK-MEL-5)?
Answer: 210 nM

Question: And the GI50 (OVCAR3)?
Answer: 1900 nM

Question: What about the GI50 (H33HJ-JA1) of the same compound?
Answer: 1800 nM

Question: What about the GI50 (NHDF) of the same compound?
Answer: 6300 nM

Question: And the GI50 (HT-29)?
Answer: 3800 nM

Question: What about the GI50 (AsPC1) of the same compound?
Answer: 4600 nM

Question: And the GI50 (ZR-75)?
Answer: > 5000 nM

Question: And the GI50 (Hepatocytes)?
Answer: 30000 nM

Question: What about the GI50 (ACHN) of the same compound?
Answer: 2700 nM

Question: And the GI50 (K562)?
Answer: 1700 nM

Question: What about the GI50 (A431) of the same compound?
Answer: 1200 nM

Question: And the GI50 (Ramos)?
Answer: 890 nM

Question: What about the GI50 (BxPC3) of the same compound?
Answer: 1200 nM
